According to US20250255867A1 (Kadmon Corporation, LLC, priority 2022, published 2025):

Conditions: Cohort 1 200 mg QD
Method: All responses were assessed by the investigators.
Reported Adverse Events. […] All-cause mortality data collected during the study were assessed for all enrolled participants. Disease progression related death was not reported as AE.
Number of Participants With Treatment-emergent Adverse Events (TEAEs), and Treatment-emergent Serious Adverse Events (TESAEs). […] TEAEs included both SAEs and non-SAEs. […] Analysis was performed on safety population which included all participants who received at least 1 dose of study medication.

Structure (SMILES): CC(C)NC(=O)COc1cccc(-c2nc(Nc3ccc4[nH]ncc4c3)c3ccccc3n2)c1 [Belumosudil, 2-{3-[4-(1H-indazol-5-ylamino)-2-quinazolinyl]phenoxy}-N-(propan-2-yl) acetamide]
- Diarrhoea: Affected/At Risk: 6/17
- Diarrhoea: Affected/At Risk (%): (35.29%)
- Dizziness: # Events: 0
- Dizziness: Affected/At Risk: 0/17
- Dizziness: Affected/At Risk (%): (0%)
- Drug eruption: # Events: 0
- Drug eruption: Affected/At Risk: 0/17
- Drug eruption: Affected/At Risk (%): (0%)
- Dry eye: # Events: 3
- Dry eye: Affected/At Risk: 2/17
- Dry eye: Affected/At Risk (%): (11.76%)
- Dry skin: # Events: 1
- Dry skin: Affected/At Risk: 1/17
- Dry skin: Affected/At Risk (%): (5.88%)
- Dyspepsia: # Events: 0
- Dyspepsia: Affected/At Risk: 0/17
- Dyspepsia: Affected/At Risk (%): (0%)
- Dysphagia: # Events: 1
- Dysphagia: Affected/At Risk: 1/17
- Dysphagia: Affected/At Risk (%): (5.88%)
- Dyspnoea exertional: # Events: 1
- Dyspnoea exertional: Affected/At Risk: 1/17
- Dyspnoea exertional: Affected/At Risk (%): (5.88%)
- Dyspnoea: # Events: 2
- Dyspnoea: Affected/At Risk: 2/17
- Dyspnoea: Affected/At Risk (%): (11.76%)
- Embolism: # Events: 1
- Embolism: Affected/At Risk: 1/17
- Embolism: Affected/At Risk (%): (5.88%)
- Enamel anomaly: # Events: 0
- Enamel anomaly: Affected/At Risk: 0/17
- Enamel anomaly: Affected/At Risk (%): (0%)
- Epidural lipomatosis: # Events: 1
- Epidural lipomatosis: Affected/At Risk: 1/17
- Epidural lipomatosis: Affected/At Risk (%): (5.88%)
- Epstein-Barr virus infection: # Events: 1
- Epstein-Barr virus infection: Affected/At Risk: 1/17
- Epstein-Barr virus infection: Affected/At Risk (%): (5.88%)
- Erectile dysfunction: # Events: 4
- Erectile dysfunction: Affected/At Risk: 2/17
- Erectile dysfunction: Affected/At Risk (%): (11.76%)
- Eye irritation: # Events: 1
- Eye irritation: Affected/At Risk: 1/17
- Eye irritation: Affected/At Risk (%): (5.88%)
- Eye pain: # Events: 0
- Eye pain: Affected/At Risk: 0/17
- Eye pain: Affected/At Risk (%): (0%)
- Eye pruritus: # Events: 0
- Eye pruritus: Affected/At Risk: 0/17
- Eye pruritus: Affected/At Risk (%): (0%)
- Fall: # Events: 2
- Fall: Affected/At Risk: 2/17
- Fall: Affected/At Risk (%): (11.76%)
- Fatigue: # Events: 7
- Fatigue: Affected/At Risk: 6/17
- Fatigue: Affected/At Risk (%): (35.29%)
- Flatulence: # Events: 0
- Flatulence: Affected/At Risk: 0/17
- Flatulence: Affected/At Risk (%): (0%)
- Flushing: # Events: 0
- Flushing: Affected/At Risk: 0/17
- Flushing: Affected/At Risk (%): (0%)
- Fungal infection: # Events: 1
- Fungal infection: Affected/At Risk: 1/17
- Fungal infection: Affected/At Risk (%): (5.88%)
- Gamma-glutamyltransferase increased: # Events: 9
- Gamma-glutamyltransferase increased: Affected/At Risk: 4/17
- Gamma-glutamyltransferase increased: Affected/At Risk (%): (23.53%)
- Gastric ulcer: # Events: 0
- Gastric ulcer: Affected/At Risk: 0/17
- Gastric ulcer: Affected/At Risk (%): (0%)
- Gastrooesophageal reflux disease: # Events: 2
- Gastrooesophageal reflux disease: Affected/At Risk: 2/17
- Gastrooesophageal reflux disease: Affected/At Risk (%): (11.76%)
- Generalised oedema: # Events: 1
- Generalised oedema: Affected/At Risk: 1/17
- Generalised oedema: Affected/At Risk (%): (5.88%)
- Genital infection fungal: # Events: 0
- Genital infection fungal: Affected/At Risk: 0/17
- Genital infection fungal: Affected/At Risk (%): (0%)
- Glaucoma: # Events: 0
- Glaucoma: Affected/At Risk: 0/17
- Glaucoma: Affected/At Risk (%): (0%)
- Glucose urine present: # Events: 3
- Glucose urine present: Affected/At Risk: 2/17
- Glucose urine present: Affected/At Risk (%): (11.76%)
- Graft versus host disease in gastrointestinal tract: # Events: 1
- Graft versus host disease in gastrointestinal tract: Affected/At Risk: 1/17
- Graft versus host disease in gastrointestinal tract: Affected/At Risk (%): (5.88%)
- Gynaecomastia: # Events: 0
- Gynaecomastia: Affected/At Risk: 0/17
- Gynaecomastia: Affected/At Risk (%): (0%)
- Haematuria: # Events: 1
- Haematuria: Affected/At Risk: 1/17
- Haematuria: Affected/At Risk (%): (5.88%)
- Hair growth abnormal: # Events: 1
- Hair growth abnormal: Affected/At Risk: 1/17
- Hair growth abnormal: Affected/At Risk (%): (5.88%)
- Headache: # Events: 4
- Headache: Affected/At Risk: 4/17
- Headache: Affected/At Risk (%): (23.53%)
- Hodgkin's disease recurrent: # Events: 1
- Hodgkin's disease recurrent: Affected/At Risk: 1/17
- Hodgkin's disease recurrent: Affected/At Risk (%): (5.88%)
- Hordeolum: # Events: 1
- Hordeolum: Affected/At Risk: 1/17
- Hordeolum: Affected/At Risk (%): (5.88%)
- Hot flush: # Events: 1
- Hot flush: Affected/At Risk: 1/17
- Hot flush: Affected/At Risk (%): (5.88%)
- Hyperglycemia: # Events: 2
- Hyperglycemia: Affected/At Risk: 2/17
- Hyperglycemia: Affected/At Risk (%): (11.76%)
- Hyperhidrosis: # Events: 0
- Hyperhidrosis: Affected/At Risk: 0/17
- Hyperhidrosis: Affected/At Risk (%): (0%)
- Hyperkalaemia: # Events: 7
- Hyperkalaemia: Affected/At Risk: 3/17
- Hyperkalaemia: Affected/At Risk (%): (17.65%)
- Hypertension: # Events: 8
- Hypertension: Affected/At Risk: 5/17
- Hypertension: Affected/At Risk (%): (29.41%)
- Hyperthyroidism: # Events: 0
- Hyperthyroidism: Affected/At Risk: 0/17
- Hyperthyroidism: Affected/At Risk (%): (0%)
- Hypertriglyceridaemia: # Events: 0
- Hypertriglyceridaemia: Affected/At Risk: 0/17
- Hypertriglyceridaemia: Affected/At Risk (%): (0%)
- Hyperuricaemia: # Events: 6
- Hyperuricaemia: Affected/At Risk: 1/17
- Hyperuricaemia: Affected/At Risk (%): (5.88%)
- Hypoaesthesia: # Events: 2
- Hypoaesthesia: Affected/At Risk: 1/17
- Hypoaesthesia: Affected/At Risk (%): (5.88%)
- Hypocalcaemia: # Events: 0
- Hypocalcaemia: Affected/At Risk: 0/17
- Hypocalcaemia: Affected/At Risk (%): (0%)
